# Tests used:
# [1] = tested on: nerve growth factor production by L-M cells; test: Enhancement of nerve growth factor production in L-M cells (enzyme immunoassay); format: cell-based, Rat; settings: for Nerve growth factor concentration: 24 hours, 0 µM control 0.132
# Procedure: Rat fibroblast L-M cells (ATCC CCL-1.2) were suspended in a M199 medium (Gibco) containing 0.5% Bacto Peptone (Gibco) at a concentration of 1.0 x 10^5 cells/ml. 1 ml of the suspension was inoculated into each well of a 24-well plate. The cells were cultured aseptically. After culturing for 2 days, the medium was removed and substituted with a M199 medium containing 0.5% bovine serum albumin (Sigma). Then, cyclopentenone (final concentration of 1 to 25 µM), 4HCP (Aldrich) (final concentration of 12.5µM) or dipropionylcyclopentenone (final concentration of 3.1 to 9.4 µM) was added thereto. […]
# After completion of the incubation, the concentration of nerve growth factor in the culture was measured by enzyme immunoassay (NGF Emax Immuno Assay System: Promega). […]
# [2] = tested on: HGF production, MRC-5 cells; test: Enhancement of HGF production in MRC-5 cells (ELISA); format: cell-based, Human; settings: 24 hours, negative control defined as 100% (7.2 ng/ml)
# Procedure: MRC-5 cells (CCL171, Dainippon Pharmaceutical) were suspended in a DME medium (Bio Whittaker) containing 10% fetal calf serum at a concentration of 1 x 10^5 cells/ml. 500 µl of the suspension was placed into a 48-well cell culture plate. After culturing at 37°C in the presence of 5% CO2 for 24 hours, the medium was exchanged for a DME medium containing 1% fetal calf serum. Then, one of samples was added thereto. The plate was incubated for additional 24 hours. The medium was then recovered, and the amount of HGF in the culture medium was measured using Quantikine Human Hepatocyte Growth Factor (HGF) ELISA Kit (Funakoshi). The amount of HGF produced was expressed defining a negative control as 100%. In this case, the amount of HGF produced for the negative control was 7.2 ng/ml. Cyclopentenone (at a final concentration of 20, 40 or 160 µM), GM (at a final concentration of 20, 40, 80 or 160 µM), or dipropionylcyclopentenone (at a final concentration of 32 or 64 µM) was added as a sample. As a negative control, distilled water was added in the same volume as the sample. As a positive control, prostaglandin E1 was added at a final concentration of 0.01, 0.1, 1 or 10 µM.
# mouse = test: Single oral dose toxicity in mouse; format: in vivo; settings: single dose orally administered to a mouse at 100 mg/kg
substance,measurement,setting,value
dipropionylcyclopentenone,Nerve growth factor concentration,[1]; 3.1 µM,0.164 ng/mL
same,Nerve growth factor concentration,[1]; 6.3 µM,0.259 ng/mL
same,Nerve growth factor concentration,[1]; 9.4 µM,0.257 ng/mL
same,production of nerve growth factor by L-M cells (result in words),[1]; 24 hours incubation,enhanced the production of nerve growth factor by L-M cells in a concentration-dependent manner
same,Increase in HGF production,[2]; 32 µM,120%
same,Increase in HGF production,[2]; 64 µM,144%
same,death after single oral dose,mouse,no example of death was observed

# Reference: EP1170007A1, “REMEDIES” (Takara Shuzo Co, Ltd., priority 1999, dated 2000)
